Test results as given in US10485235B2, “Aryloxypyrimidinyl ethers as herbicides” (FMC Corporation, priority 2015, dated 2019).

Assays:
Type in all cases: in vivo
kochia (Kochia scoparia) [1] = assay: Test A postemergence, kochia
In short: (§1)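 Ratings run 0–100, where 100 is complete control, and were scored visually against untreated plants about 10 days after treatment under greenhouse conditions. Formulated chemicals were sprayed either onto the soil surface after seeding (preemergence) or onto one- to two-leaf seedlings 2–10 cm high (postemergence).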

[2] = system: foxtail, giant (giant foxtail, Setaria faberii); assay: Test A preemergence, giant foxtail; details: Preemergence, 0 to 100 scale (0 no effect, 100 complete control)
In short: as §1

[3] = system: ragweed (common ragweed, Ambrosia elatior); assay: Test A preemergence, ragweed; details: Preemergence, 0 to 100 scale (0 no effect, 100 complete control)
In short: as §1

[4] = system: ragweed (common ragweed, Ambrosia elatior); assay: Test A postemergence, ragweed
In short: as §1

[5] = system: foxtail, giant (giant foxtail, Setaria faberii); assay: Test A postemergence, giant foxtail
In short: as §1

[6] = system: wheat (Triticum aestivum); assay: Test A postemergence, wheat
In short: as §1

[7] = system: blackgrass (Alopecurus myosuroides); assay: Test A postemergence, blackgrass
In short: as §1

corn (Zea mays) = assay: Test A postemergence, corn
In short: as §1

[8] = system: ryegrass, Italian (Italian ryegrass, Lolium multiflorum); assay: Test A postemergence, Italian ryegrass
In short: as §1

[9] = system: pigweed (Amaranthus retroflexus); assay: Test A preemergence, pigweed; details: Preemergence, 0 to 100 scale (0 no effect, 100 complete control)
In short: as §1

[10] = system: barnyardgrass (Echinochloa crus-galli); assay: Test A postemergence, barnyardgrass
In short: as §1

kochia (Kochia scoparia) [11] = assay: Test A preemergence, kochia; details: Preemergence, 0 to 100 scale (0 no effect, 100 complete control)
In short: as §1

[12] = system: galium (catchweed bedstraw, Galium aparine); assay: Test A postemergence, galium
In short: as §1

[13] = system: barnyardgrass (Echinochloa crus-galli); assay: Test A preemergence, barnyardgrass; details: Preemergence, 0 to 100 scale (0 no effect, 100 complete control)
In short: as §1

rice (Oryza sativa) = assay: Test B flooded paddy test, rice; details: 250 g ai/ha, Flood; visual rating after 13 to 15 days; scale 0 to 100, 0 is no effect, 100 is complete control
In short: (§2)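 Visual ratings, 0 = no effect to 100 = complete control, versus controls after 13 to 15 days in greenhouse. Test compounds were added to paddy water kept 3 cm over the soil surface, on plants at 2-leaf stage.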

[14] = system: ducksalad (Heteranthera limosa); assay: Test B flooded paddy test, ducksalad; details: 250 g ai/ha, Flood; visual rating after 13 to 15 days; scale 0 to 100, 0 is no effect, 100 is complete control
In short: as §2

[15] = system: pigweed (Amaranthus retroflexus); assay: Test A postemergence, pigweed
In short: as §1

[16] = system: ryegrass, Italian (Italian ryegrass, Lolium multiflorum); assay: Test A preemergence, Italian ryegrass; details: Preemergence, 0 to 100 scale (0 no effect, 100 complete control)
In short: as §1

[17] = system: barnyardgrass (Echinochloa crus-galli); assay: Test B flooded paddy test, barnyardgrass; details: 250 g ai/ha, Flood; visual rating after 13 to 15 days; scale 0 to 100, 0 is no effect, 100 is complete control
In short: as §2

[18] = system: sedge, umbrella (small-flower umbrella sedge, Cyperus difformis); assay: Test B flooded paddy test, umbrella sedge; details: 250 g ai/ha, Flood; visual rating after 13 to 15 days; scale 0 to 100, 0 is no effect, 100 is complete control
In short: as §2

[19] = 31 g ai/ha, postemergence, 0 to 100 scale, 0 is no effect, 100 is complete control, approximately 10 days
[20] = 125 g ai/ha, postemergence, 0 to 100 scale, 0 is no effect, 100 is complete control, approximately 10 days
[21] = Postemergence, 31 g ai/ha, 0 to 100 scale (0 no effect, 100 complete control)

Row | SMILES | Plant response rating, Kochia (kochia (Kochia scoparia) [1]; [20]) | Plant response rating, Foxtail, Giant ([2]; 31 g ai/ha) | Plant response rating, Foxtail, Giant ([2]; 125 g ai/ha) | Plant response rating, Ragweed ([3]; 31 g ai/ha) | Plant response rating, Ragweed ([3]; 125 g ai/ha) | Plant response rating, Ragweed [4, 20] | Plant response rating, Foxtail, Giant [5, 20] | Plant response rating, Wheat [6, 20] | Plant response rating, Blackgrass [7, 20] | Plant response rating, Corn (corn (Zea mays); [20]) | Plant response rating, Ryegrass, Italian [8, 20] | Plant response rating, Pigweed ([9]; 31 g ai/ha) | Plant response rating, Pigweed ([9]; 125 g ai/ha) | Plant response rating, Barnyardgrass [10, 20] | Plant response rating, Kochia (kochia (Kochia scoparia) [11]; 31 g ai/ha) | Plant response rating, Kochia (kochia (Kochia scoparia) [11]; 125 g ai/ha) | Plant response rating, Galium [12, 20] | Plant response rating, Barnyardgrass ([13]; 31 g ai/ha) | Plant response rating, Barnyardgrass ([13]; 125 g ai/ha) | Plant response rating, Rice (rice (Oryza sativa)) | also measured
1 | FCCCOc1c(I)cccc1Oc1ncc(Cl)cn1 [Compound 66] | 100 | 50 | 100 | 0 | 0 | 0 | 30 | 0 | 30 | 30 | 20 | 70 | 100 | 50 | 0 | 60 | 90 | 20 | 70 | 20 | Plant response rating, Kochia (kochia (Kochia scoparia) [1]; [19]): 90; Plant response rating, Ragweed [4, 19]: 0; Plant response rating, Foxtail, Giant [5, 19]: 10; Plant response rating, Wheat [6, 19]: 0; Plant response rating, Blackgrass [7, 19]: 10; Plant response rating, Corn (corn (Zea mays); [19]): 0; Plant response rating, Ryegrass, Italian [8, 19]: 0; Plant response rating, Barnyardgrass [10, 19]: 0; Plant response rating, Galium [12, 19]: 40; Plant response rating, Ducksalad [14]: 100; Plant response rating, Pigweed [15, 19]: 90; Plant response rating, Pigweed [15, 20]: 100; Plant response rating, Ryegrass, Italian ([16]; 31 g ai/ha): 0; Plant response rating, Ryegrass, Italian ([16]; 125 g ai/ha): 10; Plant response rating, Barnyardgrass [17]: 0; Plant response rating, Sedge, Umbrella [18]: 100
2 | N#CCCCOc1c(I)cccc1Oc1ncc(Cl)cn1 [Compound 67] | 100 | 60 | 100 | 0 | 0 | 10 | 30 | 0 | 30 | 20 | 10 | 50 | 100 | 30 | 20 | 80 | 50 | 0 | 30 | 10 | Plant response rating, Kochia (kochia (Kochia scoparia) [1]; [21]): 60; Plant response rating, Ragweed [4, 21]: 0; Plant response rating, Foxtail, Giant [5, 21]: 10; Plant response rating, Wheat [6, 21]: 0; Plant response rating, Blackgrass [7, 21]: 0; Plant response rating, Corn (corn (Zea mays); [21]): 10; Plant response rating, Ryegrass, Italian [8, 21]: 0; Plant response rating, Barnyardgrass [10, 21]: 0; Plant response rating, Galium [12, 21]: 30; Plant response rating, Ducksalad [14]: 100; Plant response rating, Pigweed [15, 20]: 100; Plant response rating, Pigweed [15, 21]: 60; Plant response rating, Ryegrass, Italian ([16]; 31 g ai/ha): 0; Plant response rating, Ryegrass, Italian ([16]; 125 g ai/ha): 20; Plant response rating, Barnyardgrass [17]: 0; Plant response rating, Sedge, Umbrella [18]: 95
